The record followed here is patent publication US7517998B2, “Non nucleoside reverse transcriptase inhibitors” (priority 2004, dated 2009).

The structures appear in SMILES notation.

The target of one assay is T1, K103NNY181C mutant reverse transcriptase (Human immunodeficiency virus type 1 group M subtype B, UniProt P04585, K690N/Y768C).
T1 construct: mutations that occur in the reverse transcriptase segment of the pol gene
The assay can be described thus: Reverse transcriptase enzymatic assay (PicoGreen), K103N/Y181C mutant RT. Type of assay: biochemical, HIV-1. The settings on record: IC50 mut (nM), mutant (K103N/Y181C) reverse transcriptase, enzymatic assay of Example 24. The method in brief:
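HIV-1 RT (2.5 nM final) pre-incubated 15 min at room temperature with inhibitor, then reacted 50 min at 37 °C with poly rC 45 nM, dG15 4.5 nM, dGTP 3.6 μM in Tris/HCl pH 7.8, 1% DMSO. Final inhibitor 10 μM to 0.508 nM; EDTA-quenched, PicoGreen fluorescence read at 485/520 nm.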
Regarding `CC(C)(C)c1ccc(-n2nnnc2SCC(=O)Nc2ccc(NC(=O)c3ccccc3)cc2Cl)c(Cl)c1` [Compound 7005], the IC50 – broadly, the point on the concentration scale where inhibition reaches its midpoint – came out at 106 nM.
Still for that read-out and setting: the figure for `CC(C)(C)c1ccc(-n2nnnc2SCC(=O)Nc2ccc(NC(=O)c3cccc(C(=O)O)c3)cc2Cl)c(Cl)c1` [Compound 7027] is 134 nM; for `CC(C)(C)c1ccc(-n2nnnc2SCC(=O)Nc2ccc(NC(=O)CCC(=O)O)cc2Cl)c(Cl)c1` [Compound 7028] it is 123 nM.

The assay is the same for the next values; noted with them: IC50 mut, K103N/Y181C mutant reverse transcriptase, enzymatic assay of Example 24.
In the case of `CC(C)(C#Cc1ccc(NC(=O)CSc2nnnn2-c2ccc(C3CC3)cc2Cl)c(Cl)c1)NCC1CC1` [Compound 4128], the IC50 was determined as 27 nM.
In turn, `CC(C)(C#Cc1ccc(NC(=O)CSc2nnnn2-c2ccc(CC3CC3)cc2Cl)c(Cl)c1)OCCN1CCCC1` [Compound 4246] showed an IC50 of 212 nM.
Compound `CN(C)CCCC(=O)NC(C)(C)C#Cc1ccc(NC(=O)CSc2nnnn2-c2cc(C(F)(F)F)ccc2Cl)c(Cl)c1F` [Compound 4170] yielded an IC50 of 33.5 nM.
For `CC(C)(C#Cc1ccc(NC(=O)CSc2nnnn2-c2ccc(C3CC3)cc2Cl)c(Cl)c1)NC(=O)Cn1cncn1` [Compound 4109], the midpoint of inhibition, the IC50, lay at 10.8 nM.
Take `CC(C)(C#Cc1ccc(NC(=O)CSc2nnnn2-c2cc(Br)ccc2Cl)c(Cl)c1)NC(=O)c1cc[n+]([O-])cc1` [Compound 4222]: the IC50 came to 11.5 nM.
`CC(C)(O)C#Cc1ccc(NC(=O)CSc2nnnn2-c2ccc(C(C)(C)C)cc2Cl)c(Cl)c1` [Compound 4005] gave an IC50 of 20 nM.
The compound `CC(C)(C#Cc1ccc(NC(=O)CSc2nnnn2-c2ccc(C(C)(C)C)cc2Cl)c(Cl)c1)COC(N)=O` [Compound 4033] came in with an IC50 of 36 nM.
`COC(C)(C)C#Cc1ccc(NC(=O)CSc2nnnn2-c2ccc(C3CC3)cc2Cl)c(Cl)c1` [Compound 4074]: half-maximal inhibition (IC50) was put at 35.5 nM.
`CC(C)(C)c1ccc(-n2nnnc2SCC(=O)Nc2ccc(C#CCCCO)cc2Cl)c(Cl)c1` [Compound 4004] had an IC50 of 16 nM.
Take `CC(C)(C#Cc1ccc(NC(=O)CSc2nnnn2-c2cc(C(C)(C)C)ccc2Cl)c(Cl)c1)NC(=O)CN1CCNCC1` [Compound 4202]: 106 nM corresponded to half-maximal inhibition (IC50).
Still for that read-out and setting: in the case of `CC(C)(C#Cc1ccc(NC(=O)CSc2nnnn2-c2ccc(C3CC3)cc2Cl)c(Cl)c1)C(=O)NCC1CCCO1` (stereo not drawn) [Compound 4146] it was 37.5 nM; in that of `CN(C)CC(=O)NC(C)(C)C#Cc1ccc(NC(=O)CSc2nnnn2-c2ccc(C3CC3)cc2Cl)c(Cl)c1` [Compound 4087], 21.5 nM; in that of `CCS(=O)(=O)NC(=O)C(C)(C)C#Cc1ccc(NC(=O)CSc2nnnn2-c2ccc(C3CC3)cc2Cl)c(Cl)c1` [Compound 4197], 57.5 nM.
Turning to `CC(C)Oc1ccc(Cl)c(-n2nnnc2SCC(=O)Nc2ccc(C#CC(C)(C)C(=O)O)cc2Cl)c1` [Compound 4187], the IC50 was determined as 61.5 nM.
For `CN(C)CC(=O)NC(C)(C)C#Cc1ccc(NC(=O)CSc2nnnn2-c2ccc(C3CC3)cc2Cl)c(Cl)c1F` [Compound 4155], the IC50 is 9.15 nM.
`CC(C)(C#Cc1ccc(NC(=O)CSc2nnnn2-c2ccc(C3CC3)cc2Cl)c(Cl)c1F)NC(=O)CN1CCNCC1` [Compound 4198] had an IC50 of 22 nM.
Take `CCN(CC)CC#Cc1ccc(NC(=O)CSc2nnnn2-c2ccc(C(C)(C)C)cc2Cl)c(Cl)c1` [Compound 4008]: the IC50 is 94 nM.
Same read-out and setting: the figure for `CC(C)(C#Cc1ccc(NC(=O)CSc2nnnn2-c2ccc(C3CC3)cc2Cl)c(Cl)c1F)NC(=O)c1cc[n+]([O-])cc1` [Compound 4157] is 5.95 nM; for `CC(C)(C#Cc1ccc(NC(=O)CSc2nnnn2-c2ccc(C(C)(C)C)cc2Cl)c(Cl)c1)C(=O)NCCN1CCOCC1` [Compound 4013] it is 62 nM; for `CC(C)(C#Cc1ccc(NC(=O)CSc2nnnn2-c2ccc(C3CC3)cc2Cl)c(Cl)c1)NC(=O)CNc1cc[n+]([O-])cc1` [Compound 4193] it is 29 nM.
Same read-out and setting: the figure for `C[C@H](CC(=O)O)C(=O)NC(C)(C)C#Cc1ccc(NC(=O)CSc2nnnn2-c2ccc(C3CC3)cc2Cl)c(Cl)c1` [Compound 4239] is 8.2 nM; for `CC(C)(C#Cc1ccc(NC(=O)CSc2nnnn2-c2ccc(C3CC3)cc2Cl)c(Cl)c1)NC(=O)OC(C)(C)C` [Compound 4069] it is 112 nM; for `CCOC(=O)NC(C)(C)C#Cc1ccc(NC(=O)CSc2nnnn2-c2ccc(C3CC3)cc2Cl)c(Cl)c1` [Compound 4081] it is 19.5 nM.
For the compound `CC(C)c1ccc(-n2nnnc2SCC(=O)Nc2ccc(C#CC(C)(C)C(=O)O)cc2Cl)c(Cl)c1` [Compound 4121], the IC50 is 33.5 nM.
Still for that read-out and setting: the figure for `Cc1cc(-n2nnnc2SCC(=O)Nc2ccc(C#CC(C)(C)O)cc2Cl)c(Cl)c(C(F)(F)F)c1` [Compound 4031] is 264 nM.
`CC(C)(N)C#Cc1ccc(NC(=O)CSc2nnnn2-c2cc(C(F)(F)F)ccc2Cl)c(Cl)c1F` [Compound 4163]: 83 nM corresponded to half-maximal inhibition (IC50).

Still in this assay, the particulars now being: IC50 mut, mutant reverse transcriptase, enzymatic assay of Example 24.
`COC(=O)CN(C)CCOc1ccc(-c2ccc(NC(=O)CSc3nnnn3-c3ccc(C(C)(C)C)cc3Cl)c(Cl)c2)cc1` [Compound 2043] showed an IC50 of 32 nM.
`CCNC(=O)c1ccc(NC(=O)CSc2nnnn2-c2ccc(C)cc2Cl)c(Cl)c1` [Compound 3008] showed an IC50 of 300 nM.
Compound `CNS(=O)(=O)c1ccc(NC(=O)CSc2nnnn2-c2ccc(C(C)(C)C)cc2Cl)c(Cl)c1` [Compound 3021] registered an IC50 of 63 nM.
The compound `CC(C)(C)c1ccc(-n2nnnc2SCC(=O)Nc2ccc(-c3ccc(OCCN4CC[C@@H](O)C4)cc3)cc2Cl)c(Cl)c1` [Compound 2041] returned a concentration for half-maximal inhibition (IC50) of 28 nM.
Compound `Cc1nnc(SCC(=O)Nc2ccc(-c3ccc(OCCN4CCCC4)cc3)cc2Cl)n1-c1ccc(C2CC2)cc1Cl` [Compound 1014] displayed an IC50 of 81 nM.
Take `CC(C)(C#Cc1ccc(NC(=O)CSc2nnc(C3CC3)n2-c2ccc(C3CC3)cc2Cl)c(Cl)c1)C(=O)O` [Compound 1019]: the IC50 stood at 525 nM.
Same read-out and setting: the figure for `Cc1ccc(-c2ncsc2SCC(=O)Nc2ccc(-c3ccc(CC(=O)O)cc3)cc2Cl)c(Cl)c1` [Compound 1002] is 795 nM; for `CC(C)(C)c1ccc(-n2nnnc2SCC(=O)Nc2ccc(OCC(=O)Nc3ccc(N4CCOCC4)cc3)cc2Cl)c(Cl)c1` [Compound 5005] it is 216 nM.
As for `CC(C)(C)c1ccc(-n2nnnc2SCC(=O)Nc2ccc(-c3cccc(C(=O)O)c3)cc2Cl)c(Cl)c1` [Compound 3022], the IC50 came out at 50 nM.
Same read-out and setting: in the case of `Cc1ccc(-n2nnnc2SCC(=O)Nc2ccc(-c3cocn3)cc2Cl)c(Cl)c1` [Compound 3016] it was 359 nM; in that of `COC(=O)c1cccc(-c2ccc(NC(=O)CSc3nnnn3-c3ccc(C)cc3Cl)c(Cl)c2)c1` [Compound 3001], 146 nM.
Turning to `Cc1ccc(-n2nnnc2SCC(=O)Nc2ccc(-c3ccc(CC(=O)NS(C)(=O)=O)cc3)cc2Cl)c(Cl)c1` [Compound 2017], the 50% inhibitory concentration (IC50) turned out to be 38 nM.
In turn, `Cc1ccc(-n2nnnc2SCC(=O)Nc2ccc(-c3ccc(CC(N)=O)cc3)cc2[N+](=O)[O-])c(Cl)c1` [Compound 2013] gave an IC50 of 20 nM.
On to `CC(C)(C)c1ccc(-n2nnnc2SCC(=O)Nc2ccc(S(=O)(=O)NCCO)cc2Cl)c(Cl)c1` [Compound 3027], for which inhibition was half-maximal at 81 nM (IC50).
For `CC(C)(C)c1ccc(-n2nnnc2SCC(=O)Nc2ccc(OCC(=O)NC[C@H]3CC[C@H](C(=O)O)CC3)cc2Cl)c(Cl)c1` [Compound 5031], half-maximal inhibition (IC50) required 118 nM.
Regarding `COC(=O)C=C(C)c1ccc(NC(=O)CSc2nnnn2-c2ccc(C3CC3)cc2Cl)c(Cl)c1` [Compound 3044], half-maximal inhibition (IC50) was put at 58.5 nM.
